Measured values: ChEMBL document CHEMBL5370641, “Structure-Based Optimization and Biological Evaluation of Potent and Selective MMP-7 Inhibitors for Kidney Fibrosis” (J Med Chem, 2023)
pIC50: −log10 of the molar value. Numbered stars: 1 amine (or outer) side, 2 acyl side, 3 side chain; on linkers, the order of the positions; unused ones are H or OH. Square brackets hold non-standard residues; d marks the D form. Peptide text beside a SMILES is read from it. * marks the point of attachment. Benzenesulfonyl(4-Cl,3-CF3) = O=S(=O)(c1ccc(Cl)c(C(F)(F)F)c1)*; Ala(4-Pyridazinyl) = N[C@@H](Cc1ccnnc1)C(=O)O; Ala(4-thiazolyl) = N[C@@H](Cc1cscn1)C(=O)O; Phe(3-I) = N[C@@H](Cc1cccc(I)c1)C(=O)O; γGlu = O=C(O)[C@H](CCC(=O)[*:2])N[*:1]; Phg = N[C@H](C(=O)O)c1ccccc1; Tle = CC(C)(C)[C@H](N)C(=O)O; β3hP = O=C(O)C[C@@H]1CCCN1

What was measured:
Matrilysin = target: T1, Matrilysin (Homo sapiens, UniProt P09237); test: Inhibition of recombinant human MMP7 using MOCAc-Pro-Leu-Gly-Leu-A2pr-(Dnp)-Ala-Arg-NH2 as substrate preincubated with compound for 15 mins followed by substrate addition and measured after 2 hrs by fluorescence based analysis
T1 sequence (P09237 whole entry): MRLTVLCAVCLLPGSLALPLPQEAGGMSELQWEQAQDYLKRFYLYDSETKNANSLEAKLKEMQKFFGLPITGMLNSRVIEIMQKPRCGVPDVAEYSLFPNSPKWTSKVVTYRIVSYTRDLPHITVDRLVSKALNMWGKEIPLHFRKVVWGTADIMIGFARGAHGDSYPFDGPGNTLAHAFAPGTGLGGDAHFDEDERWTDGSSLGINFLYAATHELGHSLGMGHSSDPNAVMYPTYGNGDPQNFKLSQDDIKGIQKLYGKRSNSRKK

[1] = target: Matrix metalloproteinase-14 (Homo sapiens, UniProt P50281); test: Inhibition of recombinant human MMP14 using MOCAc-Lys-Pro-Leu-Gly-Leu-A2pr(Dnp)-Ala-Arg-NH2 as substrate preincubated with compound for 15 mins followed by substrate addition and measured after 1 hrs by fluorescence based analysis

SMILES | pIC50 (Matrilysin) | pIC50 [1]
CC(C)(C)[C@H](NC(=O)[C@H](Cc1ccnnc1)NC(=O)CNC(=O)CC[C@H](NS(=O)(=O)c1ccc(Cl)c(C(F)(F)F)c1)C(=O)O)C(=O)N1CCC[C@H]1CC(N)=O ({Benzenesulfonyl(4-Cl,3-CF3)-γGlu}-G[Ala(4-Pyridazinyl)][Tle][β3hP]-NH2) | 8.55 | 5.85
CC(C)(C)[C@H](NC(=O)[C@H](Cn1cc(C2CC2)nn1)NC(=O)CNC(=O)CC[C@H](NS(=O)(=O)c1ccc(Cl)c(C(F)(F)F)c1)C(=O)O)C(=O)N1CCC[C@H]1CC(N)=O | 7.40 | 5.03
CC(C)(C)[C@H](NC(=O)[C@H](Cc1cscn1)NC(=O)CNC(=O)CC[C@H](NS(=O)(=O)c1ccc(Cl)c(C(F)(F)F)c1)C(=O)O)C(=O)N1CCC[C@H]1CC(N)=O ({Benzenesulfonyl(4-Cl,3-CF3)-γGlu}-G[Ala(4-thiazolyl)][Tle][β3hP]-NH2) | 8.42 | 6.03
CC(C)(C)[C@H](NC(=O)[C@@H](NC(=O)CNC(=O)CC[C@H](NS(=O)(=O)c1ccc(Cl)c(C(F)(F)F)c1)C(=O)O)c1ccccc1)C(=O)N1CCC[C@H]1CC(N)=O ({Benzenesulfonyl(4-Cl,3-CF3)-γGlu}-G[Phg][Tle][β3hP]-NH2) | 6.42 | 5.29
CC(C)(C)[C@H](NC(=O)[C@H](Cc1ccc(O)cc1)NC(=O)CNC(=O)CC[C@H](NS(=O)(=O)c1ccc(Cl)c(C(F)(F)F)c1)C(=O)O)C(=O)N1CCC[C@H]1CC(N)=O ({Benzenesulfonyl(4-Cl,3-CF3)-γGlu}-GY[Tle][β3hP]-NH2) | 8.02 | 5.57
CC(C)(C)[C@H](NC(=O)[C@H](Cc1cccc(I)c1)NC(=O)CNC(=O)CC[C@H](NS(=O)(=O)c1ccc(Cl)c(C(F)(F)F)c1)C(=O)O)C(=O)N1CCC[C@H]1CC(N)=O ({Benzenesulfonyl(4-Cl,3-CF3)-γGlu}-G[Phe(3-I)][Tle][β3hP]-NH2) | 7.92 | 5.51
